From paper PMC9254149 (RSC Advances, 2022)

How the values were obtained:
Type in all cases: cell-based, human
[1] = Cell viability by CCK-8 method; conditions: human, HepG2 cells
HepG2 cells = assay: Cell viability by CCK-8 method; conditions: Homo sapiens, HepG2, 24 h, read-out: IC50 (cell viability)
IR-HepG2 cells = assay: Glucose consumption in IR-HepG2 cells; conditions: 24 h

SMILES | viability at 24 h, 10 µM [1] [%] | viability at 24 h, 20 µM [1] [%] | viability at 24 h, 30 µM [1] [%] | viability at 24 h, 40 µM [1] [%] | viability at 24 h, 50 µM [1] [%] | IC50 (HepG2 cells) [µM] | Glucose consumption (IR-HepG2 cells; 2.5 μM) [mM] | Glucose consumption (IR-HepG2 cells; 5.0 μM) [mM] | Glucose consumption (IR-HepG2 cells; 10.0 μM) [mM] | Glucose consumption (IR-HepG2 cells; 12.5 μM) [mM] | Glucose consumption (IR-HepG2 cells; 15 μM) [mM]
CC(C)=CCCC(C)(O)C(O)CCC(C)CCO (stereo not drawn) [Compound 3, 2,6,10-trimethyl-6,7,12-trihydroxy-dodec-2-ene] | 94.8 ± 1.94 | 83.5 ± 3.68 | 60.3 ± 3.33 | 36.3 ± 1.62 | 33.4 ± 1.9 | 34 | 2.06 ± 1.27 | 2.43 ± 0.67 | 2.66 ± 0.56 | 2.86 ± 0.71 | 2.44 ± 0.60
C[C@@H]1O[C@@H](O[C@H]2[C@H](O[C@H]3CC[C@@]4(C)[C@@H](CC[C@]5(C)[C@@H]4CC=C4[C@@H]6CC(C)(C)CC[C@]6(C(=O)O)CC[C@]45C)[C@]3(C)CO)OC[C@H](O)[C@@H]2O)[C@H](O)[C@H](O)[C@H]1O [Compound 5, α-hederin] | 98.57 ± 0.57 | 93.4 ± 1.23 | 89.4 ± 1.16 | 76.1 ± 1.73 | 73.3 ± 2.58 | > 50 | 6.31 ± 0.96 | – | 7.75 ± 0.84 | 8.97 ± 0.37 | 9.99 ± 0.95
